Test results taken from patent US20180071317A1, “USE OF AGENTS THAT ALTER THE PERITUMORAL ENVIRONMENT FOR THE TREATMENT OF CANCER” (SERVICIO ANDALUZ DE SALUD, priority 2011, published 2018).

Tests used:
polymorphonuclear cells = assay: Marker expression (immunohistochemistry) in polymorphonuclear blood cells with SP alone or with NK1 antagonists; type: cell-based, human; conditions: SP 1 μM + antagonist 1 μM; 48 h
Description: Briefly, heparinized blood from healthy donors was centrifuged so as to separate the various components thereof. Red blood cells remained at the bottom of the tube. Above them was a small white layer composed of the white blood cells and above, on top of the tube, the blood plasma. The layer of white cells was distributed in a culture plate of 24 wells by adding in each the same concentration of blood plasma from the same donor, supplemented with 1% antibiotic-antimycotic (Invitrogen). In each well, approximately 1000 cells (PHF) skin from the dermis were further added, obtained as previously described in Example 2. […] After 48 hours of incubation, cells were collected and embedded in paraffin for expression analysis by immunohistochemical techniques (as described in Example 1).
The expression of TGF molecular markers (anti-TGF 2, SAB4502956) and NF-kB (anti-NF-kB, SAB4501992) using specific antibodies against them were analyzed. All antibodies used were rabbit polyclonal antibodies obtained from Sigma Aldrich and were used at a concentration of 1/1000. All experiments were carried out sixfold.

[1] = system: fibroblasts (PHF) co-cultured with tumor cells of human pancreatic adenocarcinoma (CAPAN-1); assay: Marker expression (IHC) in PHF co-cultured with CAPAN-1 tumor cells; type: cell-based; conditions: co-culture with CAPAN-1; SP 1 μM + antagonist 1 μM; 48 h;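 further: cultures grown in fresh plasma from a healthy human donor, run in six replicates, value is percent of fibroblasts positive for each marker, compared with fibroblasts cultured alone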
Experimental: (§1) All cultures were maintained 48 hours, following which the same cells were included in paraffin blocks for subsequent analysis of the expression of different markers by immunohistochemistry (see Example 1). The primary antibodies used to perform immunohistochemical assays and their concentration are detailed in Example 2. All experiments were carried out sixfold. Analyzed markers in fibroblast cells (stromal cells) were: TGF-α, TGF-β1, TGF-β2, TGF-β3, SPARC, MMP-3, MMP-7, MMP-9, MMP-11, MMP-13 and MMP-14.

[2] = system: fibroblasts (PHF) co-cultured with tumor cells of human Edwing sarcoma (MHH-ES-1); assay: Marker expression (IHC) in PHF co-cultured with MHH-ES-1 tumor cells; type: cell-based; conditions: PHF co-cultured with MHH-ES-1 + SP + NK1 antagonist
Experimental: All cultures were maintained 48 hours, following which the same cells were included in paraffin blocks for subsequent analysis of the expression of different markers by immunohistochemistry (see Example 1). […] All experiments were carried out sixfold. Analyzed markers in fibroblast cells (stromal cells) were: TGF-α, TGF-β1, TGF-β2, TGF-β3, SPARC, MMP-3, MMP-7, MMP-9, MMP-11, MMP-13 and MMP-14.

[3] = system: fibroblasts (PHF) cells co-cultured with human T lymphoma tumor (DERL-7); assay: Marker expression (IHC) in PHF co-cultured with DERL-7 tumor cells; type: cell-based; conditions: PHF co-cultured with DERL-7 + SP + NK1 antagonist
Experimental: as §1

[4] = system: fibroblasts of tumors produced by tumor cell line of human melanoma (MEL HO); assay: Marker expression (IHC) in fibroblasts of tumor or peritumoral area, mouse model, MEL HO; type: in vivo; conditions: MEL HO tumors in mice, 30 mg/kg/day oral, 7 days
Experimental: In vitro tests conducted in Example 5 are now carried out in an experimental model in mice in vivo. […] Subsequently, the expression in fibroblasts tumoral and peritumoral area of molecular markers associated with progression and maintenance of tumors: TGF-α, TGF-β1, TGF-β2, TGF-β3, MMP-7, MMP-11, MMP-14 were analyzed by immunohistochemistry.
Were injected with 2×10^7 cells tumors (corresponding, in each case to each of the tumor types as specified in Table 9) in 200 of PBS subcutaneously μl. […] Mice were randomized into two groups when the tumors reached a volume of 75 mm^3 One group was treated with non-peptide receptor antagonists NK1 and the other with placebo 200μ1. […] Tumors and samples of non-neoplastic stromal areas remote from the tumor were halved, formalin fixed (4%) and then were included in paraffin blocks for analysis by immunohistochemistry.
The expression on fibroblast cells obtained in the animal model was analyzed by immunohistochemistry, of the above markers: TGF-α, TGF-β1, TGF-β2, TGF-β3, MMP-7, MMP-1 1, MMP-14MP-14. Tables 32 to 35 depict the type of label used and the average percentage of fibroblasts present in non-tumor areas, tumor and peritumoral (±SD) which were expressing the marker shown in each of the tumor types developed from of the different cell lines used. This process was realized in mice treated with non-peptide antagonists of NK1 receptor and in untreated animals (control).

[5] = system: leukocyte cells (mono and polymorphonuclear) in co-culture with cells isolated from primary human tumors; assay: Marker expression (IHC) in leukocytes co-cultured with primary human tumor cells (colon, pancreatic, lung carcinoma, glioma, melanoma); type: cell-based; conditions: SP 1 μM + antagonist 1 μM;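 further: tumor cells and leukocytes came from the same patients, co-culture contents were paraffin-embedded for immunohistochemistry with antibodies to TGF-β2 or NF-kB, leukocytes cultured alone served as control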
Experimental: To check that the interaction of the human primary tumor cells with cells of the immune/inflammatory (mono and polymorphonuclear leukocytes) cells, stimulates the secretion of substances of importance for survival and tumor progression, cultures were carried out using sets of immune cells/inflammatory (mono and polymorphonuclear leukocytes) with tumor cells obtained directly from primary human tumors of the same patients.
The same method described in Example 7 and 9 was used to obtain tumor cells from primary human tumors. Similarly cultured immune cells/inflammatory (mono and polymorphonuclear leukocytes) were used as control and secondly, cultured tumor cells isolated from patients in the presence of immune cells/inflammatory (mono and polymorphonuclear leukocytes).
Then, paraffin blocks were prepared with the contents of each of the groups mentioned previously for expression studies using immunohistochemistry. On this occasion, in order to identify the secretion of substances with importance for the survival and progression of tumor the following markers were analyzed: TGF-β2 (SAB4502956) and NF-kB (SAB4501992) using specific antibodies against them. All antibodies used were rabbit polyclonal antibodies obtained from Sigma Aldrich and were used at a concentration of 1/1000. Immunohistochemical techniques were performed and evaluated as described in previous examples.

[6] = system: tumors from the tumor cell lines of Table 9; assay: Mean tumor volume in nude mice injected subcutaneously with human tumor cells; conditions: 30 mg/kg/day oral, 7 days
[7] = co-culture with cells isolated from colon carcinoma
[8] = co-culture with cells isolated from glioma
[9] = co-culture with cells isolated from lung carcinoma
[10] = co-culture with cells isolated from melanoma
[11] = co-culture with cells isolated from pancreatic carcinoma

With CC(=O)N1CCN([C@H]2CCN(C(=O)N(C)[C@H](C)c3cc(C(F)(F)F)cc(C(F)(F)F)c3)[C@@H](c3ccc(F)cc3C)C2)CC1 [Casopitant] the “polymorphonuclear cells expressing NF-kB” value (polymorphonuclear cells) was 0%, the “polymorphonuclear cells expressing TGF-β” value (polymorphonuclear cells) was 0% and the “PHF cells expressing MMP-3” value [1] was 0%. For the same compound, the “PHF cells expressing MMP-7” value [1] was 0%, the “PHF cells expressing MMP-9” value [1] was 0% and the “PHF cells expressing MMP-11” value [1] was 0%. For the same compound, the “PHF cells expressing MMP-13” value [1] was 0%, the “PHF cells expressing MMP-14” value [1] was 0% and the “PHF cells expressing SPARC” value [1] was 0%. For the same compound, the “PHF cells expressing TGF-α” value [1] was 0%, the “PHF cells expressing TGF-β1” value [1] was 0% and the “PHF cells expressing TGF-β2” value [1] was 0%. For the same compound, the “PHF cells expressing TGF-β3” value [1] was 0%, the “cells expressing MMP-3” value [2] was 0% and the “cells expressing MMP-7” value [2] was 0%. The “cells expressing MMP-9” value [2] was 0%, the “cells expressing MMP-11” value [2] was 0% and the “cells expressing MMP-13” value [2] was 0%. For the same compound, the “cells expressing MMP-14” value [2] was 0%, the “cells expressing SPARC” value [2] was 0% and the “cells expressing TGF-α” value [2] was 0%. For the same compound, the “cells expressing TGF-β1” value [2] was 0%, the “cells expressing TGF-β2” value [2] was 0% and the “cells expressing TGF-β3” value [2] was 0%. The “cells expressing MMP-3” value [3] was 0%, the “cells expressing MMP-7” value [3] was 0% and the “cells expressing MMP-9” value [3] was 0%. The “cells expressing MMP-11” value [3] was 0%, the “cells expressing MMP-13” value [3] was 0% and the “cells expressing MMP-14” value [3] was 0%. For the same compound, the “cells expressing SPARC” value [3] was 0%, the “cells expressing TGF-α” value [3] was 0% and the “cells expressing TGF-β1” value [3] was 0%. The “cells expressing TGF-β2” value [3] was 0%, the “cells expressing TGF-β3” value [3] was 0% and the “fibroblasts expressing MMP-7” value [4] was 0%. The “fibroblasts expressing MMP-11” value [4] was 0%, the “fibroblasts expressing MMP-14” value [4] was 0% and the “fibroblasts expressing TGF-α” value [4] was 0%. The “fibroblasts expressing TGF-β 1” value [4] was 0%, the “fibroblasts expressing TGF-β 2” value [4] was 0% and the “fibroblasts expressing TGF-β 3” value [4] was 0%. The “Percentage of mononuclear leukocytes cells which expressed NF-kB” value [5, 7] was 0%, the “Percentage of mononuclear leukocytes cells which expressed TGF-β” value [5, 7] was 0% and the “Percentage of polymorphonuclear leukocytes cells which expressed NF-kB” value [5, 7] was 0%. The “Percentage of polymorphonuclear leukocytes cells which expressed TGF-β” value [5, 7] was 0%, the “Percentage of mononuclear leukocytes cells expressing NF-kB” value [5, 8] was 0% and the “Percentage of mononuclear leukocytes cells expressing TGF-β” value [5, 8] was 0%. The “Percentage of polymorphonuclear leukocytes cells expressing NF-kB” value [5, 8] was 0%, the “Percentage of polymorphonuclear leukocytes cells expressing TGF-β” value [5, 8] was 0% and the “Percentage of mononuclear leukocytes cells which expressed NF-kB” value [5, 9] was 0%. The “Percentage of mononuclear leukocytes cells which expressed TGF-β” value [5, 9] was 0%, the “Percentage of polymorphonuclear leukocytes cells which expressed NF-kB” value [5, 9] was 0% and the “Percentage of polymorphonuclear leukocytes cells which expressed TGF-β” value [5, 9] was 0%. The “Percentage of mononuclear leukocytes cells which expressed NF-kB” value [5, 10] was 0%, the “Percentage of mononuclear leukocytes cells which expressed TGF-β” value [5, 10] was 0% and the “Percentage of polymorphonuclear leukocytes cells which expressed NF-kB” value [5, 10] was 0%. The “Percentage of polymorphonuclear leukocytes cells which expressed TGF-β” value [5, 10] was 0%, the “Percentage of mononuclear leukocytes cells which expressed NF-kB” value [5, 11] was 0% and the “Percentage of mononuclear leukocytes cells which expressed TGF-β” value [5, 11] was 0%. For the same compound, the “Percentage of polymorphonuclear leukocytes cells which expressed NF-kB” value [5, 11] was 0%, the “Percentage of polymorphonuclear leukocytes cells which expressed TGF-β” value [5, 11] was 0% and the Mean tumor volume ([6]; B lymphoblastic leukemia (peripheral human B lymphoblastoid cells) SD1) was 109 ± 8. For the same compound, the Mean tumor volume ([6]; Carcinoma of human non-small cell lung COR-L23) was 119 ± 5, the Mean tumor volume ([6]; Carcinoma of human non-small cell lung H-1963) was 97 ± 3 and the Mean tumor volume ([6]; Carcinoma of human non-small cell lung HCC-44) was 101 ± 8. For the same compound, the Mean tumor volume ([6]; Carcinoma of human small cell lung H-209) was 114 ± 7, the Mean tumor volume ([6]; Carcinoma of human urinary bladder 5637) was 100 ± 2 and the Mean tumor volume ([6]; Human B lymphoma BC-1) was 83 ± 11. The Mean tumor volume ([6]; Human Burkitt lymphoma CA-46) was 94 ± 9, the Mean tumor volume ([6]; Human Fibrosarcoma HT-1080) was 89 ± 4 and the Mean tumor volume ([6]; Human Hodgkin lymphoma KM-H2) was 86 ± 7. For the same compound, the Mean tumor volume ([6]; Human Rhabdomyosarcoma A-204) was 98 ± 5, the Mean tumor volume ([6]; Human T-cell leukemia/NK YT) was 102 ± 7 and the Mean tumor volume ([6]; Human T-lymphoma DERL human Hodgkin 7Linfoma KM-H2) was 97 ± 6. It also gave a Mean tumor volume ([6]; Human breast adenocarcinoma humano MCF-7) of 86 ± 8, a Mean tumor volume ([6]; Human breast carcinoma MDA-MB-468) of 77 ± 9 and a Mean tumor volume ([6]; Human breast carcinoma MT-3) of 87 ± 12. The Mean tumor volume ([6]; Human choriocarcinoma AC-1M32) was 84 ± 1, the Mean tumor volume ([6]; Human colon carcinoma SW-403) was 78 ± 7 and the Mean tumor volume ([6]; Human endometrial carcinoma AN3-CA) was 82 ± 3. For the same compound, the Mean tumor volume ([6]; Human endometrial stromal sarcoma ESS-1) was 101 ± 5, the Mean tumor volume ([6]; Human folicular thyroid carcinoma TT2609-C02) was 112 ± 5 and the Mean tumor volume ([6]; Human gastric adenocarcinoma 23132/87) was 83 ± 4. For the same compound, the Mean tumor volume ([6]; Human glioma GAMG) was 102 ± 4, the Mean tumor volume ([6]; Human lung carcinoma A-427) was 102 ± 8 and the Mean tumor volume ([6]; Human lung carcinoma DV-90) was 99 ± 5. The Mean tumor volume ([6]; Human lymphoblastic leukemia T BE-13) was 101 ± 4, the Mean tumor volume ([6]; Human malignant fibrous histiocytoma U-2197) was 107 ± 2 and the Mean tumor volume ([6]; Human melanoma MEL HO) was 102 ± 9. The Mean tumor volume ([6]; Human multiple myeloma COLO-677) was 104 ± 6, the Mean tumor volume ([6]; Human neuroblastoma KELLY) was 112 ± 5 and the Mean tumor volume ([6]; Human neuroblastoma bone marrow SKN-BE 2) was 103 ± 4. The Mean tumor volume ([6]; Human osteosarcoma CAL-72) was 106 ± 7, the Mean tumor volume ([6]; Human ovarian adenocarcinoma EFO-27) was 88 ± 6 and the Mean tumor volume ([6]; Human ovarian carcinoma COLO-704) was 97 ± 6. For the same compound, the Mean tumor volume ([6]; Human pancretic adenocarcinoma CAPAN-1) was 73 ± 8, the Mean tumor volume ([6]; Human pancretic adenocarcinoma PA-TU 8902) was 75 ± 6 and the Mean tumor volume ([6]; Human papillary thyroid carcinoma metastasizing B-CPAP) was 106 ± 4. The Mean tumor volume ([6]; Human prostate carcinoma 22RV1) was 98 ± 4, the Mean tumor volume ([6]; Human retinoblastoma WERI-Rb-1) was 101 ± 5 and the Mean tumor volume ([6]; Human thyroid carcinoma 8505C) was 99 ± 9. The Mean tumor volume ([6]; Human uterine cervix carcinoma KB) was 112 ± 1, the Mean tumor volume ([6]; Melanoma humano, metástasis en ganglio linfático COLO 858) was 99 ± 5 and the Mean tumor volume ([6]; Sarcoma human Edwing MHH-ES-1) was 97 ± 9. The Mean tumor volume ([6]; Transitional Carcinoma of human urinary bladder RT-4) was 101 ± 3.
